# Source: patent US9403873B2, “Peptides targeting receptor activator of nuclear factor-κB (RANK) and their applications” (UNIVERSITE DE NANTES, priority 2011, dated 2016)
# Entries after “also recorded” stand apart in the source; their conditions may differ. Ends that are not written are not given here.
# Assays:
# monocytes = experiment: Cytotoxicity on monocytes; assay type: cell-based; details: 100 μM
# hRANK = molecular target: T1, hRANK (Homo sapiens, UniProt Q9Y6Q6); experiment: Surface plasmon resonance (Biacore) binding to immobilized RANK-Fc; details: SPR, 1:1 Langmuir model
# T1 construct: For NMR experiments with soluble RANK receptor-Fc (R&D Systems); purchased R&D Systems
# T1 sequence (Q9Y6Q6 30-212 limits assumed): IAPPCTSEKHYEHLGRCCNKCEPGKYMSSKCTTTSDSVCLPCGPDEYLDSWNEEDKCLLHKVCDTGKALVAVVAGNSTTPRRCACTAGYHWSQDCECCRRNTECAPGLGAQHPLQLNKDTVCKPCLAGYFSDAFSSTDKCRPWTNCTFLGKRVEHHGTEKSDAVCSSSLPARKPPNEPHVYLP
# Protocol: Biosensor experiments were carried out on a BIAcore 3000 instrument (BIAcore) as published previously (Baud′Huin et al. 2009). Recombinant purified RANKL (2 μg/mL in 5 mM maleate, pH 5.75) or RANK-Fc carrier-free (5 μg/mL in sodium acetate buffer, pH 5.0) were covalently immobilized to the dextran matrix of a CM5 sensor chip (BIAcore) at a flow rate of 5 μL/min. Immobilization levels ranging from 400 to 3000 Response Units (RU) for RANKL or 5000 RU for RANK were obtained. Binding assays were performed at 25° C. in 10 mM Hepes buffer, pH 7.4. The association phase was 180 seconds followed by a dissociation phase in the same buffer. Polypeptides binding studies to RANK or RANKL were determined using single cycle kinetics, starting with 100 μM of the polypeptide of interest followed by 2-fold serial dilutions (ranging from 100 to 0.78 μM). The sensorgrams were fitted to calculate the equilibrium-dissociation constants using the Langmuir 1:1 model with BiaEval 4.1 software (BIAcore). RANK-Fc CF, RANKL and OPG carrier-free were obtained from R&D Systems (Minneapolis, Minn., USA).
# [1] = test system: ovariectomized C57BL/6 mice; experiment: Toxicity in ovariectomized mice (body weight, organ histology); assay type: in vivo, mouse; details: 10 mg/kg/day
# Protocol: During the experimental period, the body weight of the mice was monitored. […] After treatment for five weeks, mice were anesthetized with isoflurane (2%, 1 L/min) and sacrificed by cervical dislocation. Lumbar vertebrae and tibiae were collected for micro-CT analysis and stored at 4° C. in 4% paraformaldehyde until further analysis. Additionally, internal organs (heart, liver, lungs, kidneys, spleen, intestines and thymus) of some mice (n=3 per group) were harvested and stored for toxicity screening.
# After sacrifice, organs were conserved and fixed in 4% PFA at 4° C., and embedded in paraffin. Sections (4 μm) were cut and stained with hematoxylin and eosin (Lamoureux et al. 2009, Baud′Huin et al. 2010). General morphology of organs was evaluated on each section using a DMRXA microscope (Leica, Nussloch, Germany).
# [2] = test system: RANKL-induced signaling (Akt, p38, ERK, NF-κB) in RAW264.7 cells; experiment: Western blot of RANKL-induced signaling in RAW264.7 cells; assay type: cell-based, murine
# Protocol: After treatment for 5, 10, 15, 30 or 60 minutes at 37° C., total cell lysates were obtained and protein concentrations were determined as described previously (Duplomb et al. 2008). For NF-κB pathway analysis, separate cytoplasmic and nuclear protein fractions were obtained using the NE-PER Nuclear and Cytoplasmic Extraction Kit (Thermo Scientific, UK). Proteins (40 μg) were run on 10% SDS—PAGE and transferred to Immobilon-P membranes (Millipore, Billerica, Mass., USA), which were then incubated with antibodies to Akt, phospho-Akt, ERK 1/2, phospho-ERK 1/2, p38, phospho-p38, IκBα, p105, p65, p50 and Rel B (Cell Signalling, Danvers, Mass., USA). The labeled proteins were detected using the ECL reagent (Pierce, Rockford, Ill., USA). β-Actin (total cell extract or cytoplasmic fraction), histone H3, and HDAC (nuclear fraction) were used as housekeeping proteins (Cell Signalling).
# (§1) Murine RAW264.7 cells (ATCC) were cultured in αMEM (Invitrogen) supplemented with 10% FBS (Hyclone). Human embryonic kidney 293 cells (ATCC) were stably transduced with an expression-ready clone (Ex-00007-Lv105, OmicsLink™ Expression Clone, GeneCopoeia™) containing the ORF cDNA of RANK/TNFRSF11A. HEK-RANK cells were maintained in DMEM (Lonza), 10% FBS and 1 μg/mL puromycin.
# [3] = test system: HEK-RANK cells (human embryonic kidney cells overexpressing RANK); experiment: RANK signaling and receptor half-life study in HEK-RANK cells; assay type: cell-based
# Protocol: (A) Inhibition of activation of Akt, p38 and ERK by Pep8 (50 μM) was assessed as inhibition of phosphorylation (p) in RAW264.7 cells using Western blot analysis with antibodies against phospho-Akt, phospho-p38 and phospho-ERK. Immunoblots were stripped and then reprobed with antibodies against Akt, p38 and ERK. β-Actin served as loading control. (B) Western blot analyses of NF-κB distribution in the presence or absence of 50 μM Pep8. After treatment with the polypeptide, RAW264.7 cells were fractionated into nuclear and cytoplasmic portions. Nuclear proteins (45 μg) were analyzed with anti-NF-κB p105, p50 and p65 antibodies, while cytoplasmic proteins (30 μg) were analyzed with anti-IκBα. For the non-canonical NF-κB pathway, RelB expression was analyzed in both fractions. β-Actin, HDAC1 and Histone H3 served as loading controls for the cytoplasmic and nuclear fractions, respectively. A representative experiment is shown; time after RANKL stimulation is indicated in parenthesis. (C) Receptor half-life study. […] RANK expression was determined with anti-RANK/TNFRSF11A.
# as §1, with “HEK-RANK cells were maintained in DMEM (Lonza), 10% FBS and 1 μg/mL puromycin.” left out
# [4] = test system: cathepsin K, TRAP and NFATc1 mRNA in CD14+ cells; experiment: Real-time RT-PCR of osteoclast marker genes in CD14+ cells; assay type: cell-based, human; details: CD14+ cells with M-CSF and RANKL; day 3 to day 11 after RANKL stimulation
# [5] = 50 μM, 15 minutes of RANKL treatment
sequence,measurement,setting,value
"NVLKLCSGE [Pep8, NVLKLCSGE]",cytotoxic effect,monocytes,no cytotoxic effect
same,kon,hRANK; read-out: association rate constant (kon),495 M⁻¹ s⁻¹
same,koff,hRANK; read-out: dissociation rate constant (koff),0.0052 s⁻¹
same,histopathological evaluation of major organs,"[1]; 5 weeks, heart, lungs, liver, kidneys, spleen, skin",No histomorphological difference; also recorded: no toxic effects
same,effect on body weight in OVX mice,[1]; 35 days,no effect
same,RANKL-induced degradation of IκBα and nuclear translocation of p50 and p65,[2]; 50 μM,blocked
same,expression levels of RelB in cytoplasmic and nuclear fraction,[2]; 50 μM,no effect
same,RANKL-induced Akt phosphorylation,"[2]; 50 μM, 5 minutes of RANKL treatment",exhibited an inhibitory effect
same,RANKL-induced phosphorylation of ERK,[2]; [5],inhibited phosphorylation
same,RANKL-induced phosphorylation of p38,[2]; [5],inhibited phosphorylation
same,basal phosphorylation of p38,[2]; absence of RANKL stimulation,decreased phosphorylation of p38 even in the absence of RANKL stimulation
same,activation of p38 after stimulation with RANKL,[3],strongly inhibited
same,degradation of RANK in presence of cycloheximide,"[3]; CHX 4 μg/mL, Pep8 200 μM, compared with RANKL","lead to a degradation of RANK, although to a somewhat lesser extent"
same,"mRNA expression of cathepsin K, TRAP and NFATc1",[4],inhibited the mRNA expression; also recorded: markedly reduced
